± gives the expanded uncertainty stated by the source.
Experiment: mean ionic activity coefficient (dimensionless); mn = molality of the nth substance listed, in mol/kg
Conditions: 278.15 K, 100 kPa, Liquid, cell potential measurements

[Cl-].[Na+] [sodium chloride] + O
Conditions | mean ionic activity coefficient
m1 = 0.0101 | 0.895 ± 0.096
m1 = 0.05 | 0.833 ± 0.096
m1 = 0.0999 | 0.771 ± 0.096
m1 = 0.1999 | 0.741 ± 0.096
m1 = 0.5 | 0.642 ± 0.096
m1 = 0.9999 | 0.619 ± 0.096
m1 = 1.999 | 0.628 ± 0.096
m1 = 2.999 | 0.654 ± 0.096
